This is an account of results in US12595483B2, “Treatment of tumors with miRNA targeting CDK4/CDK6” (Institute For Cancer Research, priority 2017, dated 2026).

Common to all, as to type: cell-based, human
One data set concerns p21. Briefly: Western blot of p21 (cell cycle arrest). The note with it: 50 nM mimic; 5-FU 384 μM (HT-29 and SW-480) or 25 μM (HCT-116 and RKO). As to the method:
(§1) Western blot: Western blotting was performed by routine and well known procedures. The following antibodies were used: CDK4 (Santa Cruz Biotechnology, sc-260), CDK6 (CST, D4S8S), CDK1 (Santa Cruz Biotechnology, sc-54), Cyclin-D1 (CST, 92G2), p-Rb (S795) (CST, 9301S), Total Rb, BCLxL (CST, 2764S), PARP (CST, 9542), p53-DO1 (Santa Cruz Biotechnology, sc-126), p21 (Calbiochem, OP64), and β-actin (Sigma, A5441).
(§2) A panel of CRC cell lines was reverse transfected with 25 nM (HCT-116) or 50 nM of SCR or indicated miRNA mimics. At 16 hours post-transfection, Irinotecan (see, FIG. 5A) or 5-FU (see, FIG. 5B) at indicated doses were added. Synergy of miRNA-drug was measured by cell viability 72 hours post-transfection using CellTiter-Glo assay. The effect on apoptosis and cell cycle markers with miRNA alone or combination were assessed using 50 nM of miRNA mimic and […] (HT-29 and SW-480) or 2.5 μM Irinotecan (HCT-116 and RKO) by western blot. For 5-FU, 384 μM (HT-29 and SW-480) and 25 μM (HCT-116 and RKO) were used. Representative western blots are shown in FIG. 5C and FIG. 5D, respectively.
On the technique in general: A western blot detects proteins with antibodies after separation by electrophoresis.

In another data set the test system is phosphorylated Rb (S795). Briefly: Western blot of cell cycle markers. The note with it: 100 nM miRNA mimics, 72 hours post-transfection; all four cell lines. The method, then: as §1
(§3) Referring in particular to FIGS. 3A, 3B, 3C, 3D, and 3E, data is presented showing that restoring expression of miR-6883-5p and miR-149* results in G1-arrest and cell death in CRC cell lines. […] The effects on cell viability were measured 72 hours post-transfection using CellTiter-Glo assay. Referring to FIG. 3B, the effects of the miRNA mimics on long-term cell proliferation of CRC cell lines was assessed by colony formation assays performed in 6-well plates. […] The effects on cell cycle markers (see, FIG. 3C) and markers of apoptosis (see, FIG. 3D) were evaluated by western blot 72 hours post-transfection. […] Referring to FIG. 3E, cell cycle profiles and apoptotic cells were assessed in three CRC cell lines by reverse transfecting with SCR or 50 nM (HCT-116 and HT-29) or 100 nM (RKO) miRNA mimics. 72 hours post-transfection, cells were fixed, stained with PI, and analyzed by FACS. […]

Data set [1] relates to panel of CRC cell lines (HCT-116, RKO, HT-29, SW-480). Briefly: miRNA-Irinotecan synergy by cell viability (CellTiter-Glo). The conditions noted are these: 25 nM (HCT-116) or 50 nM mimic, Irinotecan added 16 hours post-transfection, read 72 hours; all four cell lines. As to the method: (§4) Cell Proliferation assays: Five thousand to ten thousand cells were reverse transfected with either scramble duplex or miRNA to a net concentration of 50 nM and plated in 96-well plate. Cell viability was measured 72 hours post-transfection using CellTiter-Glo® Luminescent Cell Viability Assay (Promega). Percent cell viability was calculated by normalizing the luminescence signal to scramble duplex wells. All transfections were performed in triplicates and reported as % Viability±SEM.
as §2
(In general: Cellular ATP, detected with luciferase, serves as a proxy for viable cell number.)

The subject of a further data set is CDK4. Briefly: CDK4 protein (western blot) and RNA (qRT-PCR) expression in CRC cell lines transfected with miRNA mimics. The conditions noted are these: 50 nM miRNA mimic vs scrambled duplex, 72 hours; HCT-116, RKO, HT-29, SW-480. The method, then: (§5) Transfection of miRNA mimics, siRNA and plasmid constructs: All miRNA mimics and siRNA transfections were performed by reverse transfection using Lipofectamine RNAiMAX (Life technologies, Grand Island, NY). 80 nM siRNA was used in all experiments for HT-29, RKO and SW-480 cell lines. 40 nM siRNA was used for HCT-116 cells. miRNA mimics were transfected at concentrations of either 25 nM, 50 nM, or 100 nM, as indicated in respective assays. CDK4-Luciferase vector was transfected in HCT-116 cells using Lipofectamine 3000 (Life technologies, Grand Island, NY) and stable cells were selected using G418 antibiotic (500 μg/mL).
(§6) Quantitative RT-PCR (qRT-PCR): Total RNA, which includes miRNA, was isolated using the Quick-RNA™ MiniPrep kit (Zymo Research, Irvine, CA). One μg of total RNA from each sample was subjected to cDNA synthesis using SuperScript® III Reverse Transcriptase kit (Life Technologies, Grand Island, NY), for detection of CDK4, CDK6, and housekeeping genes. […] The relative expression of the reported genes and miRNAs was determined using real-time PCR performed on Applied Biosystems 7900HT Fast Real-Time PCR system. […] Each cDNA sample was amplified using Power SYBR Green (Applied Biosystems, CA) and miRNA components were quantified using TaqMan® Universal Master Mix II, no UNG (Applied Biosystems, CA). […]

The next data set relates to CDK6. Briefly: CDK6 protein (western blot) and RNA (qRT-PCR) expression in CRC cell lines transfected with miRNA mimics. The conditions noted are these: 50 nM miRNA mimic vs scrambled duplex, 72 hours; HCT-116, RKO, HT-29, SW-480. The method, then:
as §5, §6

The subject of the next data set is CDK4 3′UTR. Briefly: CDK4-Luciferase (pMirtarget CDK4 3′UTR) reporter assay in stable HCT-116 cells. The conditions noted are these: 48 hours; for direct binding to the 3′UTR region of CDK4: pMirtarget-CDK4-Luciferase vector, HCT-116, 50 nM mimic. As to the method: as §5
Luciferase assays: CDK4-Luciferase containing stable HCT-116 cells were reverse-transfected with either scramble duplex or 50 nM miRNA mimics. Luciferase signal was detected 48 hours post-transfection and Relative Luciferase Units (RLU) were calculated by normalizing luciferase signal per μg of protein per assay well. All transfections were performed in triplicates and reported as RLU units±SEM.
Referring in particular to FIGS. 2A, 2B, and 2C, data is presented showing that miR-6883-5p and miR-149* negatively regulate expression of […] and CDK6 in CRC cell lines. Referring to FIG. 2A, CDK4 and CDK6 protein levels were detected in a panel of CRC cell lines reverse transfected with 50 nM of miRNA mimics or scrambled duplex (SCR) for 72 hours. Referring to FIG. 2B, qRT-PCR was performed for CDK4 and CDK6 in SCR or miRNA mimics transfected in CRC cell lines (50 nM, 72 hours, n=3). *, ** and *** indicate p-value relative to SCR expression. Referring to FIG. 2C, HCT-116 cells stably selected with CDK4-Luciferase construct were reverse transfected with SCR or 50 nM of the indicated miRNA mimics for 48 hours. Measured luciferase activities were normalized per μg of protein for indicated samples and reported as RLU±SEM (n=3). * indicates p-value relative SCR RLU.

Data set [2] has as its system p53 mutant cell lines HT-29 and SW-480. Briefly: miRNA-5-FU combination by cell viability (CellTiter-Glo). The conditions noted are these: 50 nM mimic, 5-FU added 16 hours post-transfection, read 72 hours. As to the method:
as §4, §2

The test system of another data set is PARP. Briefly: Western blot of markers of apoptosis (PARP cleavage). The conditions noted are these: RKO and SW-480 cells; 100 nM miRNA mimics, 72 hours.
The subject of the next data set is XIAP. Briefly: Western blot of XIAP. The conditions noted are these: 100 nM miRNA mimic, 72 hours.
The test system of the next data set is BCLXL. Briefly: Western blot of BCLXL. The note with it: 100 nM miRNA mimic, 72 hours. As to the method:
as §1, §3

Description for PARP: Referring to FIG. 3A, a panel of CRC cell lines was reverse transfected with 50 nM SCR or 50 nM of indicated miRNA mimics. […] All four CRC cell lines were reverse transfected with 100 nM SCR or indicated miRNA mimics. The effects on cell cycle markers (see, FIG. 3C) and markers of apoptosis (see, FIG. 3D) were evaluated by western blot 72 hours post-transfection. Representative western blots are shown (n=3).

As to `O=c1[nH]cc(F)c(=O)[nH]1` [5-FU, 5-fluorouracil, reference compound], the “cell cycle arrest as seen by p21 levels, single agent” value with p21 is given as “caused cell cycle arrest”.
Take hsa-miR-149-3p [miR-149*]: the “levels of phosphorylated Rb (S795)” value in the data set with phosphorylated Rb (S795) was “reduced levels of phosphorylated Rb (S795)”. Besides, the “synergy with Irinotecan (cell viability)” value in data set [1] is reported as “synergized with Irinotecan”. Moreover, the “CDK4 protein and RNA level” value in the data set on CDK4 is “no impact on CDK4”. Moreover, in the data set on CDK6, the “CDK6 protein and RNA level” value was “more potent in reducing levels of CDK6”. Moreover, the “direct binding to the 3′UTR region of CDK4” value with CDK4 3′UTR is “directly bind to the 3′UTR region of CDK4”. The “cell cycle arrest as seen by p21 levels, single agent” value with p21 was “caused cell cycle arrest”. Further, in data set [2], the “sensitivity to 5-FU (cell viability)” value is “increased the sensitivity of p53 mutant cell lines HT-29 and SW-480 to 5-FU”.
“hsa-miR-6883-5p (AGGGAGGGUGUGGUAUGGAUGU; called a modified oligonucleotide, chemistry not given here; listed as Homo sapiens) [miRNA mimic purchased from Sigma-Aldrich (HMI2616)]”: the “apoptosis (PARP-cleavage)” value in the data set on PARP was “most potent in inducing apoptosis”. In addition, in the data set with phosphorylated Rb (S795), the “levels of phosphorylated Rb (S795)” value is “reduced levels of phosphorylated Rb (S795)”. Moreover, the XIAP level result in the data set on XIAP is “downregulated XIAP and BCLXL”. Besides, the “synergy with Irinotecan (cell viability)” value in data set [1] is on record as “synergized with Irinotecan”. Further, in the data set on CDK4, the “CDK4 protein and RNA level” value is “targeted both CDK4 and CDK6 at both the protein and RNA level”. For the same molecule, the “CDK6 protein and RNA level” value in the data set with CDK6 is “targeted both CDK4 and CDK6 at both the protein and RNA level”. The luciferase signal result in the data set with CDK4 3′UTR (HCT-116 CDK4-Luciferase stable cells, 50 nM mimic, compared to miR-206 and miR-149*) was “significantly reduced luciferase signal”. Also, the “direct binding to the 3′UTR region of CDK4” value with CDK4 3′UTR is “directly bind to the 3′UTR region of CDK4”. Besides, the “sensitivity to 5-FU (cell viability)” value in data set [2] is “increased the sensitivity of p53 mutant cell lines HT-29 and SW-480 to 5-FU”. Also, in the data set with BCLXL, the BCLXL level result was “downregulated XIAP and BCLXL”.
